How the values were obtained:
Format in all cases: in vivo, rhesus macaques (Macaca mulatta)
[1] = system: CD8+ T cells; assay: T lymphocyte functional assay (PMA/ionomycin stimulation, flow cytometry)
Procedure: To simplify the complication of RMD treatment and SIV infection, it was vital to assess the impact of RMD administration on the T-cell function, particularly on the cellular immune responses on uninfected RMs. Due to the incapability to assess the SIV-specific immune responses, the overall cytotoxic capacity of lymphocytes in the blood was assessed as follows. Frozen PBMCs were thawed, counted, and were either unstimulated or stimulated with PMA and ionomycin (Sigma, St. Louis, MO). PBMCs were stained with the following antibodies: CD3-V500 (SP34-2), CD4-APC (L200), CD8-PE-CF594 (RPA-T8), CD107a-APC-Cy7 (H4A3), Granzyme A-PerCP/Cy5.5 (CB9) (BioLegend), Granzyme B-Alexa Flour 700 (GB11), Granzyme K-FITC (GM6C3) (Santa Cruz Biotechnology, Dallas, TX), IFN-γ-FITC (4S.B3), and Perforin-PE (B-D48) (BioLegend); antibodies were from BD Biosciences unless otherwise noted. Stained PBMCs were then acquired on an LSR-II flow cytometer. Data were analyzed using FlowJo software (Treestar).
Previous studies reported conflicting data as to whether the functionality of CTLs is diminished by RMD administration ([41], [64]). Therefore, we performed functional assays on lymphocytes collected from superficial and mesenteric LNs and intestinal resections, focusing on the overall expression of the surrogate killing marker CD107a, along with granzymes A, B, and K, IFN-γ, and perforin with PMA and ionomycin stimulation ( Figure 11 ).

[2] = system: H3 and H4 histone acetylation in peripheral CD4+ and CD8+ T cells; assay: Histone acetylation assay (flow cytometry); conditions: 7 mg/m^2 4-h IV infusion
Procedure: The efficacy of RMD treatment was assessed by monitoring histone acetylation of frozen PBMCs: at the baseline, 6 h postinfusion, and 1, 2, and 5 days postinfusion, using a flow-cytometrical method, as described ([41]). Briefly, separated PBMCs were stained for surface markers for 20 min with: CD3-APC-Cy7 (SP34-2), CD4-V500 (L200), CD8-PE (SK1), CD14-BV570 (M5E2) (BioLegend, San Diego, CA), CD28-PE-CF594 (CD28.2), CD69-BV421 (FN50), CD95-PE-Cy5 (DX2), PD-1-PE-Cy7 (EH12.2H7) (BioLegend); all antibodies were from BD Biosciences, unless otherwise stated. PBMCs were then lysed with PhosFlow Lyse/Fix buffer (BD Biosciences) for 30 min and permeabilized with Perm Buffer [0.4% Triton X-100 in PBA (Sigma)] for 10 min, followed by washing. Permeabilized PBMCs were stained with the following antibodies for intracellular markers: Ac-H4 (3HH4-2C2) (Active Motif, Carlsbad, CA, USA) and Ki-67-Alexa Flour 647 (BD Biosciences). Ac-H4 recognizes motifs on histones H3 and H4 and was conjugated to FITC using Zenon reagent kit (Invitrogen, Carlsbad, CA). Stained PBMCs were then washed, fixed with BD Stabilizing Fixative (BD Biosciences), and acquired with a LSR-II flow cytometer. Data were analyzed with FlowJo software.

[3] = system: CD3+ T cells in tissues; assay: CD3+ T cell frequency in intestine and LNs by immunofluorescence; conditions: for CD3+ T cells in superficial LNs, area fraction: average, pretreatment 30%, 7 mg/m^2
Procedure: CD3^+ T cell frequency in the intestine and LNs was assessed through immunofluorescence (IF), as described ([55]). Fixed, paraffin-embedded tissues from the three RMs were cut and placed onto microscope slides. The slides were treated three times with xylene (Thermo Fisher Scientific), run through an ethanol battery, washed with dH2O, and placed into 1× PBS (Thermo Fisher Scientific). Slides were microwaved with Antigen Unmasking Solution (Vector Labs, Burlingame, CA) for antigen retrieval. Once slides had cooled, they were washed three times in 1× PBS and the tissues were circled with Immedge Pen (Vector Labs) to create a hydrophobic barrier. Dako Serum-Free Protein Block (Agilent, Santa Clara, CA) was added to the tissues. The Dako Protein Block was dumped off and the slides incubated with mouse α-CD3 (Agilent). The primary antibody was dumped off and slides washed in 1× PBS as previously noted. The remaining steps were completed in the dark. The slides were incubated with the secondary antibody, goat α-mouse (Alexa Fluor 488) (Invitrogen) followed by a subsequent 1× PBS wash. The slides were incubated with DAPI (Millipore Sigma, Burlington, MA), and then dumped off and washed with 1× PBS, followed by dH2O, and dried. Coverslips were then mounted to the slides with fluorescent mounting media (Agilent). Slides were visualized and imaged with Zeiss Imager M1 microscope and Axiovision software [V4.8.2.0 (Carl Zeiss AG, Oberkochen, Germany)]. Image quantifications were performed using the FIJI distribution ([56]) of ImageJ 1.52c ([57]), where positive fluorescent signals were isolated by setting color thresholds and the percent positive area was calculated.

[4] = intestine, 2 days postinfusion, pretreatment 2%
[5] = mesenteric LN, 1 day postinfusion, pretreatment 2%
[6] = superficial LN, 2 days postinfusion, pretreatment 1%
[7] = superficial LN, 2 days postinfusion, pretreatment 4%

C/C=C1\NC(=O)[C@H]2CSSCC/C=C/[C@H](CC(=O)N[C@H](C(C)C)C(=O)N2)OC(=O)[C@H](C(C)C)NC1=O [RMD, romidepsin]
Granzyme K expression in CD8+ T cells ([1]; intestine, 2 days postinfusion, pretreatment 1%): < 1%
CD107a expression in CD8+ T cells [1, 4]: 1%
Granzyme A expression in CD8+ T cells [1, 4]: < 1%
Perforin expression in CD8+ T cells ([1]; intestines, 2 days postinfusion, pretreatment 1%): < 1%
IFN-γ expression in CD8+ T cells ([1]; intestines, 2 days postinfusion, pretreatment 2%): 1%
Granzyme B expression in CD8+ T cells ([1]; intestines, 2 days postinfusion, pretreatment 11%): 3%
CD107a expression in CD8+ T cells ([1]; mesenteric LN, 1 day postinfusion, pretreatment 1%): < 1%
Granzyme K expression in CD8+ T cells [1, 5]: < 1%
Perforin expression in CD8+ T cells [1, 5]: < 1%
IFN-γ expression in CD8+ T cells ([1]; mesenteric LN, 1 day postinfusion, pretreatment 5%): 3%
Granzyme B expression in CD8+ T cells ([1]; mesenteric LN, 2 days postinfusion, pretreatment 5%): 2%
Granzyme A expression in CD8+ T cells ([1]; mesenteric LNs, 1 day postinfusion, pretreatment 1%): < 1%
CD107a expression in CD8+ T cells [1, 6]: < 1%
Granzyme K expression in CD8+ T cells [1, 6]: < 1%
Perforin expression in CD8+ T cells [1, 6]: < 1%
Granzyme B expression in CD8+ T cells [1, 7]: 1%
IFN-γ expression in CD8+ T cells [1, 7]: 1%
Granzyme A expression in CD8+ T cells ([1]; superficial LNs, 2 days postinfusion, pretreatment 1%): < 1%
time of return of histone acetylation to near baseline level ([2]; CD4+ and CD8+ T cells, all RMs): ≤ 5 days postinfusion
time of peak H3/H4 histone acetylation in blood CD4+ and CD8+ T cells ([2]; third RM (RM33)): 1 day postinfusion
time of peak H3/H4 histone acetylation in blood CD4+ and CD8+ T cells ([2]; two of three RMs): 6 h postinfusion
CD3+ T cells in superficial LNs, area fraction ([3]; 6 h postinfusion): 40%
CD3+ T cells in intestine, area fraction ([3]; 1 day postinfusion, three RMs, pretreatment 5.8%, not significant): 7.6%
CD3+ T cells in superficial LNs, area fraction ([3]; 7 days postinfusion): 41%
CD3+ T cells in mesenteric LNs, area fraction ([3]; animal RM71, 1 day postinfusion, pretreatment 31%): 43%
CD3+ T cells in mesenteric LNs, area fraction ([3]; animals RM32 and RM33, 1 day postinfusion vs pretreatment, p > 0.05): virtually unchanged

Source: article PMC7759686, “Pharmacokinetics and Immunological Effects of Romidepsin in Rhesus Macaques” (Frontiers in Immunology, 2020)
